Results from PMC12117998, “First Steps toward the Design of Peptides that Influence the Intracellular Palmitoylation Machinery” (Chembiochem, 2025).
No end group written: not given here.

Key:
human 6His‐ZDHHC7 = target: T1, human 6His‐ZDHHC7 (Homo sapiens, UniProt Q9NXF8); assay: In vitro palmitoylation assay (LC‐MS); format: biochemical; details: 50 μM CF‐labeled peptide, 37 °C, LC‐MS (Figure 4)
T1 construct: 6His; purchased Proteintech
T1 sequence (Q9NXF8 1-308): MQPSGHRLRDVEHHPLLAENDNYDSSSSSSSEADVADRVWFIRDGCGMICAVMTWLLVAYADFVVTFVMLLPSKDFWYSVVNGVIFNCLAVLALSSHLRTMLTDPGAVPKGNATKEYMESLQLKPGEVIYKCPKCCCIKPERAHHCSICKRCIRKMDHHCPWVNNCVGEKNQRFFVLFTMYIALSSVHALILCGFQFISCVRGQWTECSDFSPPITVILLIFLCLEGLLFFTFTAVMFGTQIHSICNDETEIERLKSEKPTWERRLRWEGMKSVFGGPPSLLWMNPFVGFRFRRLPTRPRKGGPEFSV
Procedure: The 50 μM CF‐labeled peptides were incubated with 100 nM human 6His‐ZDHHC7 (Proteintech) and 100 μM palmitoyl‐CoA (Santa Cruz Biotechnology) in reaction buffer (50 mM HEPES, 150 mM NaCl, 1 mM EDTA, 1 mM (tris(2‐carboxyethyl)phosphine) (TCEP), 0.3 mM DDM, pH 7.0) for 2 h at 37 °C. Control reactions without ZDHHC7 or palm‐CoA were incubated with the appropriate volume of reaction buffer. Afterward, the reaction was centrifuged for 5 min at 13000 rpm. The precipitate was dissolved in DMSO/ACN (3:2, v/v). To enrich the peptide from the supernatant, C8 ZipTips were used. All samples were analyzed on the LC MS‐8060 triple quadrupole ESI‐MS (Shimadzu). The fluorescence intensity (λex = 493 nm, λem = 517 nm) of the samples was measured on an EC 160/2 NUCLEODUR 300‐5 C18 ec column using linear gradients from 20% to 70 % ACN in ddH2O + 0.1% FA over 7 min.

[1] = Peptide incubation in media and identification of peptide species (LC-MS); format: physicochemical
Procedure: (§1) Hela cells (15,000) were seeded into a 96-well plate. Cells were treated with suitable peptide concentrations diluted in the corresponding serum-free culture medium. After 1 h peptide incubation under standard growth conditions, the positive control was either directly treated with lysis solution or the supernatant was exchanged for serum-free culture medium and the plate was incubated for further 5 h under growing conditions. The CytoTox-ONE™ Reagent was added and incubated at RT for 10 minutes. Finally, the Stop Solution was added and the fluorescence was measured at 595 nm (λex = 550 nm) on an infinite M200 plate reader (Tecan) and normalized to the positive control cells.
Red blood cells (RBCs) were washed three times in PBS by centrifug ing at 4 °C and 3,000 x g for 5 min and diluted to 5% in PBS. The desired peptide concentrations diluted in PBS were added into a 96-well plate. Next, 5% RBCs in PBS were added into the wells and incubated for 24 h at 37 °C and 5% CO2. As a positive control, RBCs were mixed with 10% Triton X-100 in PBS. After the incubation time was completed, the plate was centrifuged at 2,500 x g for 3 min at RT and 100 μL of the supernatant was transferred into a fresh 96 -well plate. Lastly, the absorption (λ=560 nm) was measured on the infinite M200 plate reader (Tecan). For the evaluation, the measured absorption of the Triton-X-100 treatment was set to a hemolysis rate […]
30,000 HeLa cells were seeded into an 8-well. Cells were stained for 10 min with the Hoechst 33342 nuclear dye and transferred to the microscope UltraView VoX Spinning Disk Confocal Microscope (Perkin Elmer). 5 µM CF-DC-2 were added to the cells. Cells were imaged on a Plan-Apo Tirf 60X oil objective (NA 1.49, Nikon) at 37°C a nd 5% CO2. […]
mixed with 5 µl TFA. […] Finally, the different peptide species were analyzed by analytical HPLC ESI-MS (LTQ XL, Thermo Scientific) using a gradient of 10% to 60% of acetonitrile (ACN) in ddH2O + 0.1% formic acid (FA) on an Aeris 3.6 µm PEPTIDE XB-C18 100 LC column (Phenomenex).

HeLa cells = assay: Live‐cell fluorescence imaging of peptide uptake; format: cell-based
Procedure: HeLa (40,000), MDA‐MB‐231 (30,000), or HFF1 (55,000) cells were seeded into an 8‐well ibidi. Cells were treated for 30 min with 5 μM of CF‐labeled peptide diluted in the appropriate serum‐free media. The cell nuclei were stained with the Hoechst 33342 nuclear dye for the last 10 min of the total incubation time. Afterward, cells were washed three to four times using serum‐free medium and finally, medium containing FBS was added for the microscopy. Live fluorescence microscopy analyses were performed on the LSM 980 with Airyscan 2 Inverse Confocal Laser Scanning Microscope (Carl Zeiss) on a 63X Plan‐Apochromat oil objective (NA 1.4, Zeiss) at 37 °C and 5% CO2 or on the BZ‐X810 (Keyence) using a 60X Plan‐Apochromat oil objective (NA 1.4, Keyence). Images were cropped and processed using Fiji.
as §1
Red blood cells (RBCs) were washed three times in PBS by centrifug ing at 4 °C and 3,000 x g for 5 min and diluted to 5% in PBS. The desired peptide concentrations diluted in PBS were added into a 96-well plate. Next, 5% RBCs in PBS were added into the wells and incubated for 24 h at 37 °C and 5% CO2. As a positive control, RBCs were mixed with 10% Triton X-100 in PBS. […] Lastly, the absorption (λ=560 nm) was measured on the infinite M200 plate reader (Tecan). For the evaluation, the measured absorption of the Triton-X-100 treatment was set to a hemolysis rate […]

MDA‐MB‐231 = assay: Cellular uptake by flow cytometry; format: cell-based; details: MDA‐MB‐231, 30 min, 5 μM CF‐labeled peptides, serum-free medium, 37 °C, n ≥ 3 (Figure 3E)
Procedure: HeLa (90,000), MDA‐MB‐231 (120,000), and HFF‐1 (125,000) cells were seeded into a 24‐well plate. Cells were treated with the desired concentration of CF‐labeled peptide diluted in the appropriate serum‐free medium for 30 min at 37 °C and 5% CO2. Afterward, cells were washed once with PBS, detached from the plate using indicator‐free trypsin/EDTA and resuspended in indicator‐free culture medium. The cell mixture was measured on the Guava easyCyte flow cytometer (Merck) using the GRN‐B (520/30) detector.

GLRKRLRKFRNKKMDHHCPW-NH2 [DC‐2, CPP sC18* fused to the DHHC motif derived from ZDHHC2/3/6/7/15/16/20]
palmitoylation in presence of ZDHHC7 (human 6His‐ZDHHC7; 100 nM ZDHHC7, 100 μM palmitoyl‐CoA, pH 7.0, 2 h): palmitoylated | palmitoylation in absence of ZDHHC7 (auto‐palmitoylation) (human 6His‐ZDHHC7; 100 μM palmitoyl‐CoA, no ZDHHC7, pH 7.0, 2 h): auto‐palmitoylation | peptide species observed in medium lacking L‐cystine ([1]; 5 µM CF-DC-2 in serum-free medium lacking L-cystine and L-methionine, LC‐MS (Figure S8A)): mostly reduced peptide was observed | peptide species observed in normal cell culture medium ([1]; 5 µM CF-DC-2 in serum-free medium, before addition to HeLa cells and after 30 min at 37 °C, LC‐MS, Δmass = +119 Da (Figure S8A)): S‐cysteinylation at the cysteine | disulfide dimer formation in normal cell culture medium ([1]; 5 µM CF-DC-2 in serum-free medium, before addition to HeLa cells or after 30 min at 37 °C, LC‐MS (Figure S8A)): did not observe the disulfide dimer | time‐lapse cellular uptake (HeLa cells; 5 μM CF-DC-2, imaged every 10 sec for 30 min (Video 1)): rapid cellular uptake | intracellular uptake pattern (HeLa cells; 30 min, 5 μM CF‐labeled peptides, confocal laser scanning microscopy (Figure 3G)): diffuse cytosolic pattern | cellular uptake (in words) (MDA‐MB‐231): internalized to a higher extent compared to DC‐4
